Experimental data from ChEMBL document CHEMBL5291721, “A preclinical secondary pharmacology resource illuminates target-adverse drug reaction associations of marketed drugs” (Nat Commun, 2023).

Experiments:
D(3) dopamine receptor = D(3) dopamine receptor (Homo sapiens, UniProt P35462)
[1] = target: Beta-1 adrenergic receptor (Homo sapiens, UniProt P08588); type: functional
Estrogen receptor = target: T1, Estrogen receptor (Homo sapiens, UniProt P03372)
T1 sequence (P03372 whole entry): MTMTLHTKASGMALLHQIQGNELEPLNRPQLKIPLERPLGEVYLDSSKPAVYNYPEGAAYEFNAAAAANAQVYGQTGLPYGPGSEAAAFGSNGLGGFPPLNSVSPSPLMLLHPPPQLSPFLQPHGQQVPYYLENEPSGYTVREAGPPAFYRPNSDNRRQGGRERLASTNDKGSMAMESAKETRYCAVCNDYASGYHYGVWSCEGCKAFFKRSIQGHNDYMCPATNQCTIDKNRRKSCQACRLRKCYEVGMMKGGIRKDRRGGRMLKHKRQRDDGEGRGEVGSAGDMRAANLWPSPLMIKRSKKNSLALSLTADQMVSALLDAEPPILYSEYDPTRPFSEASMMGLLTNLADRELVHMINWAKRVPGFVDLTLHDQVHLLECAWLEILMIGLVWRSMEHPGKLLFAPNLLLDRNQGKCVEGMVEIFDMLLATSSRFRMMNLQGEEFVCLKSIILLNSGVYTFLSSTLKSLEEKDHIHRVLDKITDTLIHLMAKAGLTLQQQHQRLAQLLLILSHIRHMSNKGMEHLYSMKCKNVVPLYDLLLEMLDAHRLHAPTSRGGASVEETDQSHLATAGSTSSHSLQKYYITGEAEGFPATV

[2] = target: Delta-type opioid receptor (Homo sapiens, UniProt P41143)
[3] = target: Voltage-gated inwardly rectifying potassium channel KCNH2 (Homo sapiens, UniProt Q12809); type: functional; conditions: read-out: AC50
[4] = target: T2, Alpha-2A adrenergic receptor (Homo sapiens, UniProt P08913); type: functional, cell-based
T2 sequence (P08913 whole entry): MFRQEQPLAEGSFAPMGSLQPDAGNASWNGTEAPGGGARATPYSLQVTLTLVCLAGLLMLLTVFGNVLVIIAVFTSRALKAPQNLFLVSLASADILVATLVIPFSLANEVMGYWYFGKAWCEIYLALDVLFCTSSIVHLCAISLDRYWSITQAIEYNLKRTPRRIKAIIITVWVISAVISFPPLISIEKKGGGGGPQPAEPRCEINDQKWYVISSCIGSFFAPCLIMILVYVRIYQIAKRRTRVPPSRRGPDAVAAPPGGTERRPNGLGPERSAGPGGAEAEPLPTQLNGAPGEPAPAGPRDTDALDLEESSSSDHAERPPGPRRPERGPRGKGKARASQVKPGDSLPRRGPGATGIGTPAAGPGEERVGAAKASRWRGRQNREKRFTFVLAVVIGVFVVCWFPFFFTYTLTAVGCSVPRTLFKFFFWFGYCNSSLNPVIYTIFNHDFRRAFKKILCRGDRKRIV

[5] = target: T3, 5-hydroxytryptamine receptor 2C (Homo sapiens, UniProt P28335)
T3 sequence (P28335 whole entry): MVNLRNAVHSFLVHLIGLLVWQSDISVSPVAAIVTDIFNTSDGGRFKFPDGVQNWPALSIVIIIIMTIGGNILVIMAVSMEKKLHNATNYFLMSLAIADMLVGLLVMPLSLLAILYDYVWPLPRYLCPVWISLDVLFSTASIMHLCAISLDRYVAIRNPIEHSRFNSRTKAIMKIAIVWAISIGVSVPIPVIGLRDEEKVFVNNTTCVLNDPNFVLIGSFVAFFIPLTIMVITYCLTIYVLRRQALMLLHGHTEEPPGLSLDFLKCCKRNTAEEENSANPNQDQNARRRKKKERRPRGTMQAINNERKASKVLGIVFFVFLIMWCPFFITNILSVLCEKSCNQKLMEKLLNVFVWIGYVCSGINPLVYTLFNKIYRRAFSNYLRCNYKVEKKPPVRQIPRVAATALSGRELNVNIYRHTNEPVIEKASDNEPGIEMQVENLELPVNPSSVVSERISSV

[6] = target: T4, Muscarinic acetylcholine receptor M1 (Homo sapiens, UniProt P11229); type: functional
T4 sequence (P11229 whole entry): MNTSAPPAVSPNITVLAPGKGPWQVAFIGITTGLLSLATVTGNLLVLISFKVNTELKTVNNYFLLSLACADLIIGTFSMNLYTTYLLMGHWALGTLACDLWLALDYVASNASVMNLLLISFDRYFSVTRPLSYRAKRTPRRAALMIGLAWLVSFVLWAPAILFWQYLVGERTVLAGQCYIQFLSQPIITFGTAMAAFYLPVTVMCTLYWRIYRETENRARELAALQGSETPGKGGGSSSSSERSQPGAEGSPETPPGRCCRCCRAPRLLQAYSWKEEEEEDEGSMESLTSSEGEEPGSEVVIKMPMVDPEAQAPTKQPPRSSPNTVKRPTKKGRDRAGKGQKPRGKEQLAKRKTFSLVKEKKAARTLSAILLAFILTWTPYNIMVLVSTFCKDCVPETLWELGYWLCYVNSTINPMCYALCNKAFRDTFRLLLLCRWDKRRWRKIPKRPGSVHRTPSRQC

Vasopressin V1a receptor = Vasopressin V1a receptor (Homo sapiens, UniProt P37288)
[7] = target: T5, Alpha-1A adrenergic receptor (Homo sapiens, UniProt P35348); type: functional, cell-based
T5 sequence (P35348 whole entry): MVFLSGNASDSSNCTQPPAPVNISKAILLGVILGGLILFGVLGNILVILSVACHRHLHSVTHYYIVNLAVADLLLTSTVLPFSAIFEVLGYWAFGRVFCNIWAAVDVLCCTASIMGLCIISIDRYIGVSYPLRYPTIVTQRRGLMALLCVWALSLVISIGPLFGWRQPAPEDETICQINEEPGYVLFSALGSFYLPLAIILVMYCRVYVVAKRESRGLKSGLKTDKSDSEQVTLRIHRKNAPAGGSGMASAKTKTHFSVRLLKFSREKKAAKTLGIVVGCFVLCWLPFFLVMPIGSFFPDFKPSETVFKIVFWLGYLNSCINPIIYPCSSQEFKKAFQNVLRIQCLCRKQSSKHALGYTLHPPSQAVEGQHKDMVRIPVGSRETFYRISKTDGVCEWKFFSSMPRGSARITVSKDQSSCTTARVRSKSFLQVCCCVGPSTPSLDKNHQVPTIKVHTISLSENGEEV
Also: assay procedure not described here.

Chain of D(3) dopamine receptor (P35462 whole entry): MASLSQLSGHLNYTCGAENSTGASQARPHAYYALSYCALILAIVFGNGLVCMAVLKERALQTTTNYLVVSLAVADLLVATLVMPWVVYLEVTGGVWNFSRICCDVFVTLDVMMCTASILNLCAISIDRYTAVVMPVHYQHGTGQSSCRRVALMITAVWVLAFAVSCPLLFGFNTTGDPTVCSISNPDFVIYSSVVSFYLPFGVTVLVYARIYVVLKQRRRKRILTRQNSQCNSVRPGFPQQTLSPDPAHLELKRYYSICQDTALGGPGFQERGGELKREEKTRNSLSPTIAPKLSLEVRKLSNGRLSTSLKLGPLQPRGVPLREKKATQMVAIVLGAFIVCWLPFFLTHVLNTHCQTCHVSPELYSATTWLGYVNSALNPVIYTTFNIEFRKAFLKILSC
Chain of Vasopressin V1a receptor (P37288 whole entry): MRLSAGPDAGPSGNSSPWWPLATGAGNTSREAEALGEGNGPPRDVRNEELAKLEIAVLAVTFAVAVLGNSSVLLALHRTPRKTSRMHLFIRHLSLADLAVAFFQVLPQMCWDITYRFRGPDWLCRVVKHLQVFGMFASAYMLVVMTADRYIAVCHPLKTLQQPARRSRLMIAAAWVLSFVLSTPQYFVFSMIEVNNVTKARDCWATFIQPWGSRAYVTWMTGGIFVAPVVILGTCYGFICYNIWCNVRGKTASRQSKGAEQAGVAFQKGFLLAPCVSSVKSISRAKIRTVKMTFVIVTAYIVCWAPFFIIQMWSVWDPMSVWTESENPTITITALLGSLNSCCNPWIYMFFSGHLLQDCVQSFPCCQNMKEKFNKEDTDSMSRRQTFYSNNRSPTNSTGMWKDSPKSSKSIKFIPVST
Chain of Beta-1 adrenergic receptor (P08588 whole entry): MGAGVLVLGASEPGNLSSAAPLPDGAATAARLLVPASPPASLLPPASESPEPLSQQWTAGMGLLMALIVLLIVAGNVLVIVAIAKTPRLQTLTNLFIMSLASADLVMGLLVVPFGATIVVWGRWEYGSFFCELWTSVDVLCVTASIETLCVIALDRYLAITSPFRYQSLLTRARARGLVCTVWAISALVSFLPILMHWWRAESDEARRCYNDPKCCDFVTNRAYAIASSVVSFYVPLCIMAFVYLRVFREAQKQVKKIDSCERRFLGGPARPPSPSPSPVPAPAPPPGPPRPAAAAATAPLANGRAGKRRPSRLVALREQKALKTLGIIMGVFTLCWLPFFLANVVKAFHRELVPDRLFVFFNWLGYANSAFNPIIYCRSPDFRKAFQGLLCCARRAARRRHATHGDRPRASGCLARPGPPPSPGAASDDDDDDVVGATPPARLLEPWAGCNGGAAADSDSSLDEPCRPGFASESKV
Chain of Voltage-gated inwardly rectifying potassium channel KCNH2 (Q12809 whole entry): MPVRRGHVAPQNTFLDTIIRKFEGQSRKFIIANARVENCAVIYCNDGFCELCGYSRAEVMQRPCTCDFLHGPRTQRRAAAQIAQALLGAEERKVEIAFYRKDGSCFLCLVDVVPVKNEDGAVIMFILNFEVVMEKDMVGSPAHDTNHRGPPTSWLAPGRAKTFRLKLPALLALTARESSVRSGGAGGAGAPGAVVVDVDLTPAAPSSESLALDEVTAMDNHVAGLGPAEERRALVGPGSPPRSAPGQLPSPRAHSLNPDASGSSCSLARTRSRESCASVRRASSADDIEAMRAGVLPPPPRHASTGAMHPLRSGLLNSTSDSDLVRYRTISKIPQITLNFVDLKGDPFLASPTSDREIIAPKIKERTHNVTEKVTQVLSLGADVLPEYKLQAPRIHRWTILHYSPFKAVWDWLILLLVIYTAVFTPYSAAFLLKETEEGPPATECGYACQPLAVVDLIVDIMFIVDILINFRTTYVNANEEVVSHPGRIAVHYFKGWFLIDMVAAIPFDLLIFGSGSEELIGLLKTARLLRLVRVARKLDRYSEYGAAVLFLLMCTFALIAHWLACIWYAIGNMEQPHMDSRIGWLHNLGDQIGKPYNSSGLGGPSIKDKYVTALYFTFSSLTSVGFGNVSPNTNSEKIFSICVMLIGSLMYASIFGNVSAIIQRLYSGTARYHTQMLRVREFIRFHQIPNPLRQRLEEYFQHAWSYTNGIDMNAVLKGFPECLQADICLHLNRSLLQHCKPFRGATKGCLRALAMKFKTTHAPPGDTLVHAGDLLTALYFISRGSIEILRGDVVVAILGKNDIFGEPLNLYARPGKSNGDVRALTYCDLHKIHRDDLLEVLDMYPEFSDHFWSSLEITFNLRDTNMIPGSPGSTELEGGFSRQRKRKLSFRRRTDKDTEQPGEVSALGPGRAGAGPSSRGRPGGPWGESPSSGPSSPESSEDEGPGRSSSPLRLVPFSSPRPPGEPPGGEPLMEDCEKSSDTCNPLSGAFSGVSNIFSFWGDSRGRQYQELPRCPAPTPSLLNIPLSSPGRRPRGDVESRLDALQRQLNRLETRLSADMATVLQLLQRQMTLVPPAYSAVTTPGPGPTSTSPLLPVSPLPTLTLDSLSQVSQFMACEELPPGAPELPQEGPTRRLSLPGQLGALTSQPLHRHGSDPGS
Chain of Delta-type opioid receptor (P41143 whole entry): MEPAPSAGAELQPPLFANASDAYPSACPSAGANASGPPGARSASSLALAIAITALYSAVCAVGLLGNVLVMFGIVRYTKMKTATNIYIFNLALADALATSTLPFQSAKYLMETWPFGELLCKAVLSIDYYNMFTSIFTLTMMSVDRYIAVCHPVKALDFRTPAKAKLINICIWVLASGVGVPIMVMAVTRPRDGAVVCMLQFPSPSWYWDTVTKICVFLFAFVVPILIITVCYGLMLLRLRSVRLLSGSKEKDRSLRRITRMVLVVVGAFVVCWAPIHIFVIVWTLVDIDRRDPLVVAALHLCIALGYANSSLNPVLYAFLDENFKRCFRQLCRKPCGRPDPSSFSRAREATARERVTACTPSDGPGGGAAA

Row | SMILES | AC50 (D(3) dopamine receptor) [µM] | AC50 [1] [µM] | AC50 (Estrogen receptor) [µM] | AC50 [2] [µM] | AC50 [3] [µM] | AC50 [4] [µM] | AC50 [5] [µM] | AC50 [6] [µM] | AC50 (Vasopressin V1a receptor) [µM] | AC50 [7] [µM]
1 | NS(=O)(=O)c1ccc(N2CCCCS2(=O)=O)cc1 | > 30 | > 30 | > 30 | > 30 | > 30 | > 30 | > 30 | > 30 | > 30 | 
2 | O=C(O[C@H]1C[N+]2(CCCOc3ccccc3)CCC1CC2)C(O)(c1cccs1)c1cccs1 [ACLIDINIUM BROMIDE] | > 10 | > 10 | > 30 | > 30 | 0.43 |  | > 30 | 0.018 | > 10 | 
3 | Nc1cc(N2CCCCC2)nc(N)[n+]1[O-] [MINOXIDIL] | > 30 | > 30 | > 30 | > 30 |  | > 10 | > 30 |  |  | > 30
4 | COC(=O)[C@H]1[C@H]2C[C@@H]3c4[nH]c5ccccc5c4CCN3C[C@H]2C[C@@H](OC(=O)c2cc(OC)c(OC)c(OC)c2)[C@@H]1OC [DESERPIDINE] | > 30 | > 10 | > 30 | > 30 | 2.45 | > 10 | > 30 | > 10 | > 30 | 
5 | CC(C)(C)NCC(O)COc1cccc2c1CC(O)C(O)C2 (stereo not given) [NADOLOL] | > 30 | 0.102 | > 10 | > 30 | > 30 | > 10 | > 30 |  |  | 7.7
6 | CC1Cc2ccccc2N1NC(=O)c1ccc(Cl)c(S(N)(=O)=O)c1 (stereo not given) [INDAPAMIDE] | > 30 | > 10 | > 30 | > 30 | > 30 | > 10 | > 30 |  |  | > 30
7 | Cc1nnc2n1-c1ccc(Cl)cc1C(c1ccccc1)=NC2 [ALPRAZOLAM] | > 10 | > 10 | > 30 | > 30 | > 30 | > 10 | > 30 |  | > 10 | > 30
8 | CC(=O)N1CCN(c2ccc(OCC3COC(Cn4ccnc4)(c4ccc(Cl)cc4Cl)O3)cc2)CC1 (stereo not given) [KETOCONAZOLE] | > 30 | > 10 | > 10 | > 10 |  | > 10 | > 30 |  | > 10 | 
9 | O=C(O)CCCC[C@@H]1SC[C@@H]2NC(=O)N[C@@H]21 [BIOTIN] | > 30 |  | > 10 | > 30 | > 30 | > 10 | > 30 | > 10 |  | 
10 | CCCCOC(=O)c1ccc(N)cc1 [BUTAMBEN] | > 30 | > 30 | > 30 | > 30 | > 30 | > 30 | > 30 |  |  | > 30
11 | CC(=O)OCC(=O)[C@@]1(O)CC[C@H]2[C@@H]3CCC4=CC(=O)CC[C@]4(C)[C@@]3(F)[C@@H](O)C[C@@]21C [FLUDROCORTISONE ACETATE] | > 30 | > 30 | > 30 | > 30 | > 30 | > 30 | > 30 |  |  | > 30
12 | CN1C2CCCC1CC(NC(=O)c1nn(C)c3ccccc13)C2 (stereo not given) [GRANISETRON] | > 10 | > 10 | > 30 | > 10 |  | > 10 |  |  | > 10 | > 30
13 | CCOC(=O)C1=C(C)NC(C)=C(C(=O)OC)C1c1cccc(Cl)c1Cl (stereo not given) [FELODIPINE] |  | > 10 | > 30 | > 10 | > 30 | > 10 | > 10 |  | > 10 | > 30
14 | OCCN(CCO)c1nc(N2CCCCC2)c2nc(N(CCO)CCO)nc(N3CCCCC3)c2n1 [DIPYRIDAMOLE] | > 30 |  | > 30 | > 30 | > 30 | > 30 | > 30 |  |  | > 30
15 | CC(C)CN(C[C@@H](O)[C@H](Cc1ccccc1)NC(=O)O[C@H]1CCOC1)S(=O)(=O)c1ccc(N)cc1 | > 30 | > 10 | > 10 | > 30 | > 30 | > 10 | > 30 |  | > 30 | 12
16 | CCN(C(C)=O)c1cccc(-c2ccnc3c(C#N)cnn23)c1 [ZALEPLON] | > 30 | > 30 | > 30 | > 30 | > 30 | > 10 | > 30 |  |  | > 30
17 | CN1CCC(=C2c3ccccc3CC(=O)c3sccc32)CC1 [KETOTIFEN] | 3 |  | > 10 | > 30 | 1.5 | > 10 | 2.3 |  | > 10 | 15
18 | O=C1CN=C(c2ccccc2Cl)c2cc([N+](=O)[O-])ccc2N1 [CLONAZEPAM] | > 10 | > 10 | > 30 | > 30 | > 30 | > 10 | > 30 |  | > 10 | > 30
19 | Cc1cccc(Nc2ccncc2S(=O)(=O)NC(=O)NC(C)C)c1 [TORSEMIDE] | > 30 | > 10 | > 10 | > 30 | > 30 | > 10 | > 30 |  | > 30 | 
20 | CC(=O)[C@@]1(O)CC[C@H]2[C@@H]3C[C@H](C)C4=CC(=O)C=C[C@]4(C)[C@@]3(F)[C@@H](O)C[C@@]21C [FLUOROMETHOLONE] | > 30 | > 10 | > 30 | > 30 | > 30 | > 10 | > 30 |  |  | > 30
